From the NIST ThermoML archive (doi:10.1016/j.jct.2006.05.004)
Numbers after ± are expanded uncertainties.

Legend:
[1] = xn = mol fraction of the nth substance listed; conditions: 298.15 K, 101 kPa, Liquid
[2] = excess molar enthalpy (molar enthalpy of mixing); xn = mol fraction of the nth substance listed; conditions: 298.15 K, 101 kPa, Liquid

BrCCCCCCBr [1,6-dibromohexane] + CCCC(=O)OC
Conditions | excess molar enthalpy [kJ/mol] | mass density [kg/m3]
[1], x2 = 0.0254 | – | 1587.59 ± 5.3
[1], x2 = 0.0833 | – | 1555.83 ± 4.9
[1], x2 = 0.1606 | – | 1512 ± 4.4
[1], x2 = 0.2243 | – | 1474.58 ± 4
[1], x2 = 0.291 | – | 1434.05 ± 3.6
[1], x2 = 0.3545 | – | 1394.06 ± 3.3
[1], x2 = 0.4193 | – | 1351.87 ± 3
[1], x2 = 0.5445 | – | 1265.85 ± 2.3
[1], x2 = 0.6016 | – | 1224.52 ± 2
[1], x2 = 0.6573 | – | 1182.86 ± 1.8
[1], x2 = 0.7029 | – | 1147.73 ± 1.5
[1], x2 = 0.7563 | – | 1105.29 ± 1.3
[1], x2 = 0.8125 | – | 1059.12 ± 1.1
[1], x2 = 0.9056 | – | 978.87 ± 0.81
[2], x2 = 0.0838 | 0.0754 ± 0.0027 | –
[2], x2 = 0.1878 | 0.129 ± 0.0036 | –
[2], x2 = 0.2949 | 0.165 ± 0.0041 | –
[2], x2 = 0.3961 | 0.177 ± 0.0043 | –
[2], x2 = 0.4591 | 0.17 ± 0.0042 | –
[2], x2 = 0.5094 | 0.16 ± 0.004 | –
[2], x2 = 0.5864 | 0.138 ± 0.0037 | –
[2], x2 = 0.6566 | 0.12 ± 0.0034 | –
[2], x2 = 0.734 | 0.097 ± 0.0031 | –
[2], x2 = 0.8128 | 0.072 ± 0.0027 | –
[2], x2 = 0.8885 | 0.0451 ± 0.0023 | –
[2], x2 = 0.9526 | 0.0164 ± 0.0018 | –

BrCCCCCCBr [1,6-dibromohexane] + CCCCC(=O)OC
Conditions | excess molar enthalpy [kJ/mol] | mass density [kg/m3]
[1], x2 = 0.0703 | – | 1557.19 ± 4.9
[1], x2 = 0.1394 | – | 1513.24 ± 4.5
[1], x2 = 0.2633 | – | 1432.4 ± 3.7
[1], x2 = 0.3222 | – | 1392.97 ± 3.4
[1], x2 = 0.3842 | – | 1350.7 ± 3
[1], x2 = 0.4472 | – | 1306.98 ± 2.7
[1], x2 = 0.5076 | – | 1264.24 ± 2.3
[1], x2 = 0.5698 | – | 1219.49 ± 2
[1], x2 = 0.6817 | – | 1136.77 ± 1.5
[1], x2 = 0.7372 | – | 1094.69 ± 1.3
[1], x2 = 0.8445 | – | 1011.22 ± 0.82
[1], x2 = 0.8993 | – | 967.47 ± 0.84
[1], x2 = 0.945 | – | 930.4 ± 0.93
[2], x2 = 0.0734 | 0.045 ± 0.0023 | –
[2], x2 = 0.1653 | 0.0758 ± 0.0027 | –
[2], x2 = 0.264 | 0.0903 ± 0.003 | –
[2], x2 = 0.3507 | 0.0949 ± 0.003 | –
[2], x2 = 0.418 | 0.0893 ± 0.0029 | –
[2], x2 = 0.4743 | 0.0782 ± 0.0028 | –
[2], x2 = 0.5227 | 0.0644 ± 0.0026 | –
[2], x2 = 0.5866 | 0.0437 ± 0.0022 | –
[2], x2 = 0.6386 | 0.0294 ± 0.002 | –
[2], x2 = 0.716 | 0.0105 ± 0.0017 | –
[2], x2 = 0.7966 | 0.0002 ± 0.0016 | –
[2], x2 = 0.879 | -0.0033 ± 0.0016 | –
[2], x2 = 0.9483 | -0.0005 ± 0.0016 | –
